US10493169B2, “Use of charge-balanced imaging agents for determining renal function” (Beth Israel Deaconess Medical Center, priority 2009, dated 2019)
Read-outs that look alike come from different tables or passages of the source.

Assays:
[1] = Optical properties of NIR fluorophores in 100% calf serum; assay type: physicochemical; conditions: 100% calf serum supplemented with 50 mM HEPES, pH 7.4
From the text: After purification to homogeneity, optical properties of the dyes can be measured in 100% calf serum. Absorbance spectrometry (200 to 870 nm) can be performed using a USB2000 fiber optic spectrometer and CHEM2000-UV-VIS light source with cuvette holder (Ocean Optics, Dunedin, Fla.). Fluorescence spectrometry (200 to 1100 nm) can be performed using a HR2000 fiber optic spectrometer, CUV-ALL-UV 4-way cuvette holder (Ocean Optics), and a 250 mW 770 nm laser diode (Electro Optical Components, Santa Rosa, Calif.). Quantum yield can be measured under conditions of matched absorbance and 770 nm laser excitation, using ICG in DMSO (QY=13%) as the calibration standard.
(§1) Table 2 below summarizes the optical and stability properties of each of these dyes in 100% calf serum (supplemented with 50 mM HEPES, pH 7.4).

[2] = Stability of dyes in 100% calf serum at 37° C.; assay type: in vitro ADME; conditions: 100% calf serum supplemented with 50 mM HEPES, pH 7.4
Experimental: as §1

[3] = In vivo biodistribution and clearance of dyes in rats (FLARE NIR fluorescence imaging); conditions: IV 40 pmol/g (10 nmol)
Experimental: The dyes were injected IV into rats at a dose of 40 pmol/g (10 nmol). […] Excitation fluence rate was 5 mW/cm2. Camera integration time was 200 msec. All NIR fluorescence images have identical normalizations. B 1=bladder. Li=Liver. In=Intestines.

[4] = In vivo biodistribution and clearance of dyes in pigs (FLARE NIR fluorescence imaging); conditions: for Blood half-lives: IV 40 pmol/g, given in the pig paragraph, species not restated; for uptake in liver and intestines: pigs, IV 40 pmol/g (1.6 μmol)
Experimental: (§2) For in vivo characterization, 40 pmol/g (average 10 nmol) of each dye or conjugate can be injected IV into 250 g Sprague-Dawley rats whose major viscera are surgically exposed. The FLARE™ imaging system can be set to a 760 nm excitation fluence rate of 5 mW/cm2. Simultaneous color video and NIR fluorescence (800 nm) images can be acquired pre-injection, every 1 sec for the first 20 sec then every 1 min for 2 h. Camera acquisition can be held constant (typically 100 msec) and chosen to ensure that all intensity measurements are within the linear range of the 12-bit Orca-AG (Hamamatsu) NIR camera. Blood can be sampled at 0, 1, 2, 5, 10, 15, 30, 60, and 120 min via tail vein. Intensity-time curves for all major organs and tissues can be quantified. The peak fluorescence intensity and time can be determined for each tissue/organ, along with the intensity in each at 1 h post-injection. The experiment can then be repeated in pigs, with measurement of NIR fluorescent intensity of skin and all internal tissues and organs.
(§3) All dyes were injected IV into pigs at a dose of 40 pmol/g (1.6 μmol). […] Excitation fluence rate was 5 mW/cm2. Camera integration time was 200 msec. All NIR fluorescence images had identical normalizations.

[5] = in DMSO; cited from earlier work
[6] = Renal clearance: recovery of dye in urine samples; assay type: in vivo; conditions: human, healthy individuals, urine over 12 h, read-out: recovery of the pre-determined dose in urine
Experimental: Dye MM-19 with net charge of 0 was administered to three groups of subjects of healthy individuals. One group was administered a pre-determined dose of 0.5 mg; one group was administered a pre-determined dose of 2.5 mg; and one group was administered a pre-determined dose of 5.0 mg. Clearance of the dye was measured by quantitative analysis of urine samples obtained by catheterization every hour for the first four hours followed by samples obtained every two hours for the next 8 hours.

in vivo = conditions: pig, iv
Experimental: as §2, §3

| Compound | Extinction Coefficient [1] | Peak Absorbance [1] [nm] | Peak Emission [1] [nm] | QY [1] [%] | Stability at 4 h, 37° C. [2] [%] | clearance / excretion route [3] | intestinal signal [3] | non-specific uptake / background retention in tissues and organs [3] | Blood half-lives [4] [min] | uptake in liver and intestines [4] | liver uptake [3] | QY (calibration standard) [5] [%] | equilibration between intravascular and extravascular spaces [3] | dose excreted ([6]; dose not named in the sentence (groups 0.5, 2.5, 5.0 mg)) [%] | dose excreted ([6]; predetermined dose of 0.5 mg) [%] | dose excreted ([6]; predetermined dose of 2.5 mg) [%] | half-life (in vivo) [min] |
| --- | --- | --- | --- | --- | --- | --- | --- | --- | --- | --- | --- | --- | --- | --- | --- | --- | --- |
| CC1(C)C(/C=C/C2=C(Oc3ccc(S(=O)(=O)O)cc3)C(=C/C=C3/N(CCCCS(=O)(=O)O)c4ccc(S(=O)(=O)[O-])cc4C3(C)C)/CCC2)=[N+](CCCCCC(=O)O)c2ccc(S(=O)(=O)O)cc21 [CW-800] | 237,000 M^−1cm^−1 | 786 | 801 | 14.2 | 95 | cleared equally by liver and kidneys | high intestinal signal | relatively high retention in skin and other major tissues and organs | 30.6 | very high uptake in pig liver and intestines | – | – | – | – | – | – | – |
| CC1(C)C(/C=C/C=C/C=C/C=C2\N(CCCCS(=O)(=O)[O-])c3ccc4ccccc4c3C2(C)C)=[N+](CCCCS(=O)(=O)[O-])c2ccc3ccccc3c21.[Na+] [ICG] | 121,000 M^−1cm^−1 | 807 | 822 | 9.3 | 96 | eventual excretion into bile | – | – | 4.6 | very high uptake in pig liver and intestines | rapid uptake by the liver | 13 | – | – | – | – | – |
| CC1(C)C(/C=C/C2=C(Oc3ccc(CCC(=O)[O-])cc3)C(=C/C=C3/N(CCC[N+](C)(C)C)c4ccc(S(=O)(=O)[O-])cc4C3(C)C)/CCC2)=[N+](CCC[N+](C)(C)C)c2ccc(S(=O)(=O)[O-])cc21 [MM-19] | 249,000 M^−1cm^−1 | 773 | 790 | 13.7 | 95 | rapid renal excretion into urine | – | extremely low background retention in normal tissues and organs | – | – | no measurable liver uptake | – | rapid equilibration between intravascular and extravascular spaces | > 50 | > 80 | > 60 | 13.4 |
